# Patent publication US20140271765A1 (priority 2013, published 2014)
# “And” between values parts separate entries of the source, which are not always exact repeats. Equal entries are not always repeated. Where two headings read alike, the source gives them in different places.
# What was measured:
# [1] = in vivo
# [2] = human, in vivo
# [3] = buprenorphine
# [4] = dog, in vivo
# [5] = 2 implants, individual subjects
smiles,measurement,setting,value
CO[C@@]12CC[C@@]3(C[C@@H]1[C@](C)(O)C(C)(C)C)[C@H]1Cc4ccc(O)c5c4[C@@]3(CCN1CC1CC1)[C@H]2O5 [buprenorphine],shortest half-life during the plateau phase,[1]; human,25 weeks
same,"Cave from Day 21 to removal, higher in the higher dose group as compared with the lower dose group",[1],93%
same,"Cmax, higher in the higher dose group as compared with the lower dose group",[1],62%
same,reduction in buprenorphine concentrations from Day 17 to removal,[1],≤ 50%
same,time to reach plateau phase,[1],≤ 21 days
same,duration of plateau of therapeutically-effective plasma level,[2],at least 24 weeks
same,time until plasma concentration reaches a plateau,[2],about a few days to about two weeks
same,Model predicted concentration at removal,"[3]; 2 implants, Mean",330.7 pg/mL
same,Time from implant to reaching 2x last concentration,"[3]; 2 implants, Mean",242.0 h
same,α-Half Life,"[3]; 2 implants, Mean",12.75 h
same,β-Half Life,"[3]; 2 implants, Mean",133.1 h
same,γ-Half life,"[3]; 2 implants, Mean",160.7 weeks
same,Model predicted concentration at removal,"[3]; 2 implants, Median",340.0 pg/mL
same,Time from implant to reaching 2x last concentration,"[3]; 2 implants, Median",231.0 h
same,α-Half Life,"[3]; 2 implants, Median",7.55 h
same,β-Half Life,"[3]; 2 implants, Median",124.0 h
same,γ-Half life,"[3]; 2 implants, Median",77.9 weeks
same,Model predicted concentration at removal,[3]; [5],263 pg/mL and 342 pg/mL (2×) and 252 pg/mL and 447 pg/mL and 338 pg/mL
same,Time from implant to reaching 2x last concentration,[3]; [5],396 h and 259 h and 313 h and 180 h and 101 h and 203 h
same,α-Half Life,[3]; [5],7.55 h and 4.17 h and 115 h and 39.7 h and 2.94 h and 9.41 h
same,β-Half Life,[3]; [5],124 h and 206 h and 3578 h and 174 h and 52.3 h and 109 h
same,γ-Half life,[3]; [5],29.9 weeks and 457 weeks and 35.7 weeks and 120 weeks
same,Model predicted concentration at removal,"[3]; 4 implants, Mean",6.11 pg/mL
same,Time from implant to reaching 2x last concentration,"[3]; 4 implants, Mean",715.7 h
same,α-Half Life,"[3]; 4 implants, Mean",3230 h
same,β-Half Life,"[3]; 4 implants, Mean",15.95 h
same,Model predicted concentration at removal,"[3]; 4 implants, Median",5.76 pg/mL
same,Time from implant to reaching 2x last concentration,"[3]; 4 implants, Median",706.5 h
same,α-Half Life,"[3]; 4 implants, Median",3020 h
same,β-Half Life,"[3]; 4 implants, Median",15.75 h
same,changes in plasma buprenorphine exposure with external heat,[4],No consistent changes
same,mean steady state concentration (Css1),[4],3.90 ng/mL
same,mean steady-state concentration (Css3),[4],3.86 ng/mL
same,mean steady-state plasma buprenorphine concentration (Css2),[4],4.37 ng/mL
same,"steady state concentration (Css1), range",[4],3.01 to 4.77 ng/mL
same,"steady-state concentration (Css3), range",[4],2.73 to 4.84 ng/mL
same,"steady-state plasma buprenorphine concentration (Css2), range",[4],2.61 to 5.42 ng/mL
